# Measured values published in patent US20240124470A1, “FIVE-MEMBERED RING DERIVATIVE AND MEDICAL USE THEREOF” (SICHUAN HAISCO PHARMACEUTICAL CO., LTD., priority 2020, published 2024).
# Counter-ions that a name gives are not always drawn. Like-named read-outs stand apart in the source and are kept apart here.
# Biological target: T1, GLP-1 receptor (Homo sapiens, UniProt P43220)
# T1 construct: expressed in transfected cells
# Test: HEK293/CRE-luc/GLP-1R cell luciferase reporter test (agonistic effect on GLP-1 receptor)
# Format: cell-based
# Settings: HEK293/CRE-luc/GLP-1R cells
# Procedure: 1. HEK293/CRE-luc/GLP-1β cell viability
# Cell: HEK293/CRE-luc/GLP-1R
# Cell culture medium: DMEM+10% FBS+400 μg/ml G418+100 μg/ml Hygromycin B
# Frozen stock solution: 90% FBS, 10% (V/V) DMSO
# Detection buffer: DMEM+1% FBS
# Cells were cultured in DMEM medium+10% FBS+400 μg/ml G418+100 μg/ml Hygromycin B in a CO2 incubator at 37° C., and passaged once every 3-4 days.
# Cell plating: Trypsinization adjusted the cell density to 1.67×10^5 cells/mL; 60 μL of cells per well (10000 cells/well) was inoculated in a 384-well plate containing compounds; A NC well (negative control) and a background well (no cells) were set. Incubation was performed for about 18+2 h in the incubator.
# Compounds were serially diluted with the detection buffer, and the detection concentration was 0.01 nM-1000 nM.
# The cell culture plate was removed and all supernatant was aspirated from the cells. The cells were washed gently 2 times with 1×PBS.
# The diluted compound was added to a 384-well plate (10 μL/well), and three replicate wells were set for each concentration. 10 μL of the detection buffer was added to the NC well, sealed and incubated at 37° C. for 6 hours.
# The plate was removed, the cells were allowed to equilibrate to room temperature (at least 15 min), and then all supernatant was aspirated from the cells.
# Steady-Glo® Reagent was added to the sample well at 10 μL/well and incubated at room temperature for 5 min to lyse the cells.
# The test results were read with a BMG microplate reader.
# The mean background value was calculated.
# The induction factor (Fold of induction, FI)=(induction well value−background value)/(negative control well value −background value) was calculated.
# The EC50 value of the sample was calculated using Graphpad Prim 8.0 software using four-parameter fitting analysis.
# Mean and standard error (Mean±SEM) were calculated for all results and Graphpad Prism software was used for statistical analysis. Specific data were presented in the form of graphs. P<0.05 was considered to be statistically different.
# [1] = 6 hours incubation, class symbols, read-out: EC50
# [2] = bound stated, read-out: EC50 value
# T1 sequence (P43220 24-463): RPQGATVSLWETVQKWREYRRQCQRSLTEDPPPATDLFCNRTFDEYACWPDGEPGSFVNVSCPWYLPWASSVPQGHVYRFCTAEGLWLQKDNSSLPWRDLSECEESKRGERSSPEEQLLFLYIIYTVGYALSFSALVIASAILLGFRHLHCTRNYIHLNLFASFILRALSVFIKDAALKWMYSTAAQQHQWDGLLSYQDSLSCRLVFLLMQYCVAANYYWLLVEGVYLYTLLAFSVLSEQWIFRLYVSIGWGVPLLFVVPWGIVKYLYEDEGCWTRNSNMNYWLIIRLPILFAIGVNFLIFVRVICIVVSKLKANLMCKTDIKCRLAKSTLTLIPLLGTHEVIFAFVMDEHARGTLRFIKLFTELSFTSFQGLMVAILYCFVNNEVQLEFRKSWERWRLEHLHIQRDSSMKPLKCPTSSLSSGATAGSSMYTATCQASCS
Compound,EC50 [1] [nM],EC50 [2] [nM]
"N#Cc1ccc(COc2cccc(-c3cc(F)c(Cc4nc5sc(C(=O)O)cc5n4C[C@@H]4CCO4)cc3F)n2)cc1 [Compound 23, (S)-2-(4-(6-((4-cyanobenzyl)oxy)pyridin-2-yl)-2,5-difluorobenzyl)-1-(oxetan-2-ylmethyl)-1H-thieno[2,3-d]imidazole-5-carboxylic acid]",< 10,< 10
"N#Cc1ccc(COc2cccc(-c3ccc(Cc4nc5sc(C(=O)O)cc5n4C[C@@H]4CCO4)c(F)c3)n2)cc1 [Compound 20, (S)-2-(4-(6-((4-cyanobenzyl)oxy)pyridin-2-yl)-2-fluorobenzyl)-1-(oxetan-2-ylmethyl)-1H-thieno[2,3-d]imidazole-5-carboxylic acid]",< 10,< 10
"N#Cc1ccc(COc2cccc(-c3ccc(Cc4nc5sc(C(=O)O)cc5n4C[C@@H]4CCO4)cc3)n2)c(F)c1 [Compound 7, (S)-2-(4-(6-((4-cyano-2-fluorobenzyl)oxy)pyridin-2-yl)benzyl)-1-(oxetan-2-ylmethyl)-1H-thieno[2,3-d]imidazole-5-carboxylic acid]",< 10,< 10
"CC1(c2ccc(Cl)cc2F)Oc2cccc(C3CCN(Cc4nc5sc(C(=O)O)cc5n4C[C@@H]4CCO4)CC3)c2O1 (stereo partly drawn) [Compound 4, 2-((4-(2-(4-chloro-2-fluorophenyl)-2-methylbenzo[d][1,3]dioxol-4-yl)piperidin-1-yl)methyl)-1-(((S)-oxetan-2-yl)methyl)-1H-thieno[2,3-d]imidazole-5-carboxylic acid]",< 10,< 10
"CC1(c2ccc(Cl)cc2F)Oc2cccc(-c3ccc(Cc4nc5sc(C(=O)O)cc5n4C[C@@H]4CCO4)c(F)c3)c2O1 (stereo partly drawn) [Compound 10, 2-(4-(2-(4-chloro-2-fluorophenyl)-2-methylbenzo[d][1,3]dioxol-4-yl)-2-fluorobenzyl)-1-(((S)-oxetan-2-yl)methyl)-1H-thieno[2,3-d]imidazole-5-carboxylic acid]",< 10,< 10
"C[C@H]1CN(c2cccc(OCc3ccc(C#N)cc3F)n2)CCN1Cc1nc2sc(C(=O)O)cc2n1C[C@@H]1CCO1 [Trifluoroacetate salt of compound 3, 2-(((S)-4-(6-((4-cyano-2-fluorobenzyl)oxy)pyridin-2-yl)-2-methylpiperazin-1-yl)methyl)-1-(((S)-oxetan-2-yl)methyl)-1H-thieno[2,3-d]imidazole-5-carboxylic acid]",< 10,< 10
"N#Cc1ccc(COc2cccc(C3CCN(Cc4nc5cc(C(=O)O)sc5n4C[C@@H]4CCO4)CC3)n2)c(F)c1 [Compound 16, (S)-2-((4-(6-((4-cyano-2-fluorobenzyl)oxy)pyridin-2-yl)piperidin-1-yl)methyl)-3-(oxetan-2-ylmethyl)-3H-thieno[2,3-d]imidazole-5-carboxylic acid]",< 10,< 10
"N#Cc1ccc(COc2cccc(C3CCN(Cc4nc5sc(C(=O)O)cc5n4C[C@@H]4CCO4)CC3)n2)c(F)c1 [Trifluoroacetate salt of compound 1, (S)-2-((4-(6-((4-cyano-2-fluorobenzyl)oxy)pyridin-2-yl)piperidin-1-yl)methyl)-1-(oxetan-2-ylmethyl)-1H-thieno[2,3-d]imidazole-5-carboxylic acid]",< 10,< 10
"N#Cc1ccc(COc2cccc(-c3cc(F)c(Cc4nc5sc(C(=O)O)cc5n4C[C@@H]4CCO4)cc3F)n2)c(F)c1 [Compound 21, (S)-2-(4-(6-((4-cyano-2-fluorobenzyl)oxy)pyridin-2-yl)-2,5-difluorobenzyl)-1-(oxetan-2-ylmethyl)-1H-thieno[2,3-d]imidazole-5-carboxylic acid]",< 10,< 10
"CC1(c2ccc(C#N)cc2F)Oc2cccc(C3CCN(Cc4nc5sc(C(=O)O)cc5n4C[C@@H]4CCO4)CC3)c2O1 (stereo partly drawn) [Compound 5, 2-((4-(2-(4-cyano-2-fluorophenyl)-2-methylbenzo[d][1,3]dioxol-4-yl)piperidin-1-yl)methyl)-1-(((S)-oxetan-2-yl)methyl)-1H-thieno[2,3-d]imidazole-5-carboxylic acid]",< 10,< 10
"N#Cc1ccc(COc2cccc(C3=CCN(Cc4nc5sc(C(=O)O)cc5n4C[C@@H]4CCO4)CC3)n2)c(F)c1 [Trifluoroacetate salt of compound 2, (S)-2-((6-((4-cyano-2-fluorobenzyl)oxy)-3′,6′-dihydro-[2,4′-bipyridin]-1′(2′H)-yl)methyl)-1-(oxetan-2-ylmethyl)-1H-thieno[2,3-d]imidazole-5-carboxylic acid]",< 10,< 10
"N#Cc1ccc(COc2nc(-c3ccc(Cc4nc5sc(C(=O)O)cc5n4C[C@@H]4CCO4)c(F)c3)ccc2F)c(F)c1 [Compound 18, (S)-2-(4-(6-((4-cyano-2-fluorobenzyl)oxy)-5-fluoropyridin-2-yl)-2-fluorobenzyl)-1-(oxetan-2-ylmethyl)-1H-thieno[2,3-d]imidazole-5-carboxylic acid]",< 10,< 10
"CC1(c2ccc(Cl)cn2)Oc2cccc(C3CCN(Cc4nc5sc(C(=O)O)cc5n4C[C@@H]4CCO4)CC3)c2O1 (stereo partly drawn) [Compound 24, 2-((4-(2-(5-chloropyridin-2-yl)-2-methylbenzo[d][1,3]dioxol-4-yl)piperidin-1-yl)methyl)-1-(((S)-oxetan-2-yl)methyl)-1H-thieno[2,3-d]imidazole-5-carboxylic acid]",< 10,< 10
"N#Cc1ccc(COc2nc(-c3cc(F)c(Cc4nc5sc(C(=O)O)cc5n4C[C@@H]4CCO4)cc3F)ccc2F)c(F)c1 [Compound 22, (S)-2-(4-(6-((4-cyano-2-fluorobenzyl)oxy)-5-fluoropyridin-2-yl)-2,5-difluorobenzyl)-1-(oxetan-2-ylmethyl)-1H-thieno[2,3-d]imidazole-5-carboxylic acid]",< 10,< 10
"CC1(c2ccc(Cl)cc2F)Oc2cccc(-c3ccc(Cc4nc5sc(C(=O)O)cc5n4C[C@@H]4CCO4)cc3)c2O1 (stereo partly drawn) [Compound 11, 2-(4-(2-(4-chloro-2-fluorophenyl)-2-methylbenzo[d][1,3]dioxol-4-yl)benzyl)-1-(((S)-oxetan-2-yl)methyl)-1H-thieno[2,3-d]imidazole-5-carboxylic acid]",< 10,< 10
"N#Cc1ccc(COc2cccc(-c3cnn(Cc4nc5sc(C(=O)O)cc5n4C[C@@H]4CCO4)c(=O)c3)n2)c(F)c1 [Compound 9, (S)-2-((4-(6-((4-cyano-2-fluorobenzyl)oxy)pyridin-2-yl)-6-oxopyridazin-1(6H)-yl)methyl)-1-(oxetan-2-ylmethyl)-1H-thieno[2,3-d]imidazole-5-carboxylic acid]",< 10,< 10
"N#Cc1ccc(COc2ncccc2C2CCN(Cc3nc4sc(C(=O)O)cc4n3C[C@@H]3CCO3)CC2)c(F)c1 [Compound 15, (S)-2-((4-(2-((4-cyano-2-fluorobenzyl)oxy)pyridin-3-yl)piperidin-1-yl)methyl)-1-(oxetan-2-ylmethyl)-1H-thieno[2,3-d]imidazole-5-carboxylic acid]",< 10,< 10
"N#Cc1ccc(COc2cccc(C3CCN(Cc4nc5sc(C(=O)O)cc5n4C[C@@H]4CCCO4)CC3)n2)c(F)c1 [Compound 12, (S)-2-((4-(6-((4-cyano-2-fluorobenzyl)oxy)pyridin-2-yl)piperidin-1-yl)methyl)-1-((tetrahydrofuran-2-yl)methyl)-1H-thieno[2,3-d]imidazole-5-carboxylic acid]",< 10,< 10
"Cc1cc(Cc2nc3sc(C(=O)O)cc3n2C[C@@H]2CCO2)c(F)cc1-c1cccc(OCc2ccc(C#N)cc2F)n1 [Compound 8, (S)-2-(4-(6-((4-cyano-2-fluorobenzyl)oxy)pyridin-2-yl)-2-fluoro-5-methylbenzyl)-1-(oxetan-2-ylmethyl)-1H-thieno[2,3-d]imidazole-5-carboxylic acid]",< 10,< 10
"N#Cc1ccc(COc2nc(C3CCN(Cc4nc5sc(C(=O)O)cc5n4C[C@@H]4CCO4)CC3)ccc2F)c(F)c1 [Compound 17, (S)-2-((4-(6-((4-cyano-2-fluorobenzyl)oxy)-5-fluoropyridin-2-yl)piperidin-1-yl)methyl)-1-(oxetan-2-ylmethyl)-1H-thieno[2,3-d]imidazole-5-carboxylic acid]",< 10,< 10
"N#Cc1ccc(COc2cccc(N3CCN(Cc4nc5sc(C(=O)O)cc5n4C[C@@H]4CCO4)CC3)n2)c(F)c1 [Compound 13, (S)-2-((4-(6-((4-cyano-2-fluorobenzyl)oxy)pyridin-2-yl)piperazin-1-yl)methyl)-1-(oxetan-2-ylmethyl)-1H-thieno[2,3-d]imidazole-5-carboxylic acid]",< 10,< 10
